Legend:
GPR43 [1] = target: T1, GPR43 (Homo sapiens, UniProt O15552); assay: Calcium mobilization assay without probenecid; type: cell-based; conditions: GPR43 stably expressing cells, triggered with sodium acetate at EC80, read-out: GPR43 assay without probenicid IC50
T1 construct: expressed in transfected cells
T1 sequence (O15552 1-330): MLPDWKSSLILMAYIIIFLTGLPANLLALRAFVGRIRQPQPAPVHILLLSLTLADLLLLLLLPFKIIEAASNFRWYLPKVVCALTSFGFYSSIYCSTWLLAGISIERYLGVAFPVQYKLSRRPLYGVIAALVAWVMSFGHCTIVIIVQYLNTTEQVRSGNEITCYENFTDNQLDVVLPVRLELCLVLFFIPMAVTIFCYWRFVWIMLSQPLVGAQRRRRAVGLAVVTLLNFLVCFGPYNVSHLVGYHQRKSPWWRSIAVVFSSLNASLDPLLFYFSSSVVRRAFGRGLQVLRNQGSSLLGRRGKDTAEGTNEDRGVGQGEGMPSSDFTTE
Description: The following assay can be used for determination of GPR43 activation. The assay measures intracellular calcium release induced by activation of GPR43. On day 1, GPR43 stably expressing cells were detached with mild trypsinization (Trypsin, 0.25% with EDTA 4Na, 5× diluted in PBS) centrifuged at 1000 rpm for 5 min and resuspended at 6.000 cells/25 μL medium (DMEM supplemented with 10% FBS, 10 μg/mL puromycin and 1% Pen/Strep). The cells were distributed in poly-D-lysine coated 384 well plates (black with clear bottom, 25 μL/well) and incubated overnight at 37° C. 10% CO2. On day 2, 25 μL of a fluorescent Ca^2+ indicator (Calcium 4 assay; Molecular Devices) was added on top of the cells and incubated for 2 h at 37° C. Subsequently, compounds at increasing concentration (10 μL/well) were added to the plate and incubated for 15 min at 37° C. Finally the cells were triggered with sodium acetate at EC80 concentration (concentration which gives 80% of the activity of the GPR43) and the Ca-flux was measured simultaneously to the trigger injection on a fluorescence plate reader (FlexStation3), this measures the antagonist activity of the compounds. To measure agonist activity of the compounds, compound was added to the well and the Ca-flux was measured simultaneously to the injection of compound.

GPR43 [2] = target: T1, GPR43; assay: Calcium mobilization assay with probenecid; type: cell-based; conditions: GPR43 stably expressing cells; triggered with sodium acetate at EC80; 2.5 mM probenecid; read-out: GPR43 assay with probenicid IC50
Method in brief: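 […] being added at rising concentrations to a GPR43 stable line. Before this, cells were dye-loaded (Calcium 4 with 2.5 mM probenecid) for 2 h at 37 °C after overnight plating.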

Row | Structure (SMILES) | IC50 (GPR43 [1]) [nM] | IC50 (GPR43 [2]) [nM]
1 | Cc1cc(C)cc(CC(=O)N2CCC2(C)C(=O)N(C)Cc2ccc(C(C)C)cc2)c1 (stereo not drawn) [Compound 31, 1-[2-(3,5-Dimethyl-phenyl)-acetyl]-2-methyl-azetidine-2-carboxylic acid (4-isopropyl-benzyl)-methyl-amide] | 501 to 1000 | > 1000
2 | Cc1cc(C)cc(CC(=O)N2CCC2(C)C(=O)N(C)Cc2ccc(C(C)(C)C)cc2)c1 (stereo not drawn) [Compound 32, 1-[2-(3,5-Dimethyl-phenyl)-acetyl]-2-methyl-azetidine-2-carboxylic acid (4-tert-butyl-benzyl)-methyl-amide] | > 1000 | > 1000
3 | Cc1cc(C)cc(CC(=O)N2CCC2(C)C(=O)N(C)Cc2ccc(C)cc2C)c1 (stereo not drawn) [Compound 33, 1-[2-(3,5-Dimethyl-phenyl)-acetyl]-2-methyl-azetidine-2-carboxylic acid (2,4-dimethyl-benzyl)-methyl-amide] | 501 to 1000 | > 1000
4 | Cc1cc(C)cc(CC(=O)N2CCC2(C)C(=O)N(C)Cc2ccc(CC(C)C)cc2)c1 (stereo not drawn) [Compound 34, 1-[2-(3,5-Dimethyl-phenyl)-acetyl]-2-methyl-azetidine-2-carboxylic acid (4-isobutyl-benzyl)-methyl-amide] | > 1000 | > 1000
5 | CCN(Cc1ccc(Cl)cc1)C(=O)C1(C)CCN1C(=O)Cc1cc(C)cc(C)c1 (stereo not drawn) [Compound 35, 1-[2-(3,5-Dimethyl-phenyl)-acetyl]-2-methyl-azetidine-2-carboxylic acid (4-chloro-benzyl)-ethyl-amide] | 101 to 500 | 101 to 500
6 | Cc1cc(C)cc(CC(=O)N2CCC2(C)C(=O)N(C)Cc2ccc(Cl)cc2Cl)c1 (stereo not drawn) [Compound 36, 1-[2-(3,5-Dimethyl-phenyl)-acetyl]-2-methyl-azetidine-2-carboxylic acid (2,4-dichloro-benzyl)-methyl-amide] | > 1000 | > 1000
7 | Cc1cc(C)cc(CC(=O)N2CCC2(C)C(=O)N(C)Cc2ccc(OC(F)(F)F)cc2)c1 (stereo not drawn) [Compound 37, 1-[2-(3,5-Dimethyl-phenyl)-acetyl]-2-methyl-azetidine-2-carboxylic acid methyl-(4-trifluoromethoxy-benzyl)-amide] | 501 to 1000 | > 1000
8 | COc1cccc(-c2ccc(CC(=O)N3CCC3(C)C(=O)N(C)Cc3ccc(Cl)cc3)cc2)c1 (stereo not drawn) [Compound 38, 1-[2-(3′-Methoxy-biphenyl-4-yl)-acetyl]-2-methyl-azetidine-2-carboxylic acid (4-chloro-benzyl)-methyl-amide] | > 1000 | > 1000
9 | Cc1cc(C)cc(CC(=O)N2CCC2(C)C(=O)N(C)Cc2ccc(Cl)c(F)c2)c1 (stereo not drawn) [Compound 42, 1-[2-(3,5-Dimethyl-phenyl)-acetyl]-2-methyl-azetidine-2-carboxylic acid (4-chloro-3-fluoro-benzyl)-methyl-amide] | > 1000 | > 1000
10 | Cc1ccc(CNC(=O)C2(C)CCN2C(=O)Cc2ccc(Cl)cc2Cl)cc1 (stereo not drawn) [Compound 43, 1-[2-(2,4-Dichloro-phenyl)-acetyl]-2-methyl-azetidine-2-carboxylic acid 4-methyl-benzylamide] | > 1000 | > 1000
11 | CC1(C(=O)NCc2ccc(C(F)(F)F)cc2)CCN1C(=O)Cc1ccc(Cl)cc1Cl (stereo not drawn) [Compound 44, 1-[2-(2,4-Dichloro-phenyl)-acetyl]-2-methyl-azetidine-2-carboxylic acid 4-trifluoromethyl-benzylamide] | > 1000 | > 1000
12 | CN(Cc1ccc(C(F)(F)F)cc1)C(=O)C1(C)CCN1C(=O)Cc1ccc(Cl)cc1Cl (stereo not drawn) [Compound 45, 1-[2-(2,4-Dichloro-phenyl)-acetyl]-2-methyl-azetidine-2-carboxylic acid methyl-(4-trifluoromethyl-benzyl)-amide] | > 1000 | > 1000
13 | Cc1cc(C)cc(CC(=O)N2CCC2(C)C(=O)N(Cc2ccc(Cl)cc2)C2CC2)c1 (stereo not drawn) [Compound 46, 1-[2-(3,5-Dimethyl-phenyl)-acetyl]-2-methyl-azetidine-2-carboxylic acid (4-chloro-benzyl)-cyclopropyl-amide] | > 1000 | > 1000
14 | COC(=O)CN(Cc1ccc(Cl)cc1)C(=O)C1(C)CCN1C(=O)Cc1cc(C)cc(C)c1 (stereo not drawn) [Compound 48, ((4-Chloro-benzyl)-{1-[2-(3,5-dimethyl-phenyl)-acetyl]-2-methyl-azetidine-2-carbonyl}-amino)-acetic acid methyl ester] | 501 to 1000 | 501 to 1000
15 | Cc1cc(C)cc(CC(=O)N2CCC2(C)C(=O)N(CC(=O)O)Cc2ccc(Cl)cc2)c1 (stereo not drawn) [Compound 49, ((4-Chloro-benzyl)-{1-[2-(3,5-dimethyl-phenyl)-acetyl]-2-methyl-azetidine-2-carbonyl}-amino)-acetic acid] | 101 to 500 | 101 to 500
16 | Cc1c(C(=O)N2CCC2(C)C(=O)N(C)Cc2ccc(Cl)cc2)oc2ccccc12 (stereo not drawn) [Compound 50, N-(4-chlorobenzyl)-N,2-dimethyl-1-(3-methylbenzofuran-2-carbonyl)azetidine-2-carboxamide] | > 1000 | > 1000
17 | Cc1cccc(CNC(=O)C2(C)CCN2C(=O)Cc2ccc(Cl)cc2Cl)c1 (stereo not drawn) [Compound 51, 1-[2-(2,4-Dichloro-phenyl)-acetyl]-2-methyl-azetidine-2-carboxylic acid 3-methyl-benzylamide] | > 1000 | > 1000
18 | CC1(C(=O)NCc2ccc(Cl)cc2)CCN1C(=O)C1(c2ccc(Cl)cc2Cl)CC1 (stereo not drawn) [Compound 52, N-(4-chlorobenzyl)-1-(1-(2,4-dichlorophenyl)cyclopropanecarbonyl)-2-methylazetidine-2-carboxamide] | > 1000 | > 1000
19 | CNC(=O)CN(Cc1ccc(Cl)cc1)C(=O)C1(C)CCN1C(=O)Cc1cc(C)cc(C)c1 (stereo not drawn) [Compound 53, 1-[2-(3,5-Dimethyl-phenyl)-acetyl]-2-methyl-azetidine-2-carboxylic acid (4-chloro-benzyl)-methylcarbamoylmethyl-amide] | 101 to 500 | 101 to 500
20 | Cc1cc(C)cc(CC(=O)N2CCC2(C)C(=O)N(CC(=O)N(C)C)Cc2ccc(Cl)cc2)c1 (stereo not drawn) [Compound 54, 1-[2-(3,5-Dimethyl-phenyl)-acetyl]-2-methyl-azetidine-2-carboxylic acid (4-chloro-benzyl)-dimethylcarbamoylmethyl-amide] | 501 to 1000 | > 1000
21 | COC(=O)[C@H](C)N(Cc1ccc(Cl)cc1)C(=O)C1(C)CCN1C(=O)Cc1cc(C)cc(C)c1 (stereo partly drawn) [Compound 55, (S)-2-((4-Chloro-benzyl)-{1-[2-(3,5-dimethyl-phenyl)-acetyl]-2-methyl-azetidine-2-carbonyl}-amino)-propionic acid methyl ester] | > 1000 | > 1000
22 | COCCN(Cc1ccc(Cl)cc1)C(=O)C1(C)CCN1C(=O)Cc1cc(C)cc(C)c1 (stereo not drawn) [Compound 56, 1-[2-(3,5-Dimethyl-phenyl)-acetyl]-2-methyl-azetidine-2-carboxylic acid (4-chloro-benzyl)-(2-methoxy-ethyl)-amide] | > 1000 | > 1000
23 | CC1(C(=O)NCc2ccc(Cl)cc2)CCN1C(=O)Cc1csc2ccccc12 (stereo not drawn) [Compound 57, 1-(2-Benzo[b]thiophen-3-yl-acetyl)-2-methyl-azetidine-2-carboxylic acid 4-chloro-benzylamide] | > 1000 | > 1000
24 | CCOC(=O)CN(Cc1ccc(Cl)cc1)C(=O)C1(C)CCN1C(=O)Cc1csc2ccccc12 (stereo not drawn) [Compound 58, [[1-(2-Benzo[b]thiophen-3-yl-acetyl)-2-methyl-azetidine-2-carbonyl]-(4-chloro-benzyl)-amino]-acetic acid ethyl ester] | 101 to 500 | 101 to 500
25 | Cc1cc(C)cc(CC(=O)N2CCC2(C)C(=O)N(CC(=O)O)Cc2cccc(C)c2)c1 (stereo not drawn) [Compound 59, [{1-[2-(3,5-Dimethyl-phenyl)-acetyl]-2-methyl-azetidine-2-carbonyl}-(3-methyl-benzyl)-amino]-acetic acid] | > 1000 | > 1000
26 | COC(=O)CN(Cc1cccc(Cl)c1)C(=O)C1(C)CCN1C(=O)Cc1csc2ccccc12 (stereo not drawn) [Compound 60, [[1-(2-Benzo[b]thiophen-3-yl-acetyl)-2-methyl-azetidine-2-carbonyl]-(3-chloro-benzyl)-amino]acetic acid methyl ester] | > 1000 | 501 to 1000
27 | COC(=O)CCCN(Cc1ccc(Cl)cc1)C(=O)C1(C)CCN1C(=O)Cc1cc(C)cc(C)c1 (stereo not drawn) [Compound 63, 4-((4-Chloro-benzyl)-{1-[2-(3,5-dimethyl-phenyl)-acetyl]-2-methyl-azetidine-2-carbonyl}-amino)-butyric acid methyl ester] | 101 to 500 | 101 to 500
